# The NIST ThermoML archive (doi:10.1016/j.jct.2012.01.019)
# Numbers after ± are expanded uncertainties.
# Test: activity coefficient (dimensionless); of the first substance listed, at infinite dilution; xn = mol fraction of the nth substance listed
# Settings: 101 kPa, Liquid, Chromatography, x1 = 0
SMILES,activity coefficient (318.15 K),activity coefficient (328.15 K),activity coefficient (338.15 K),activity coefficient (348.15 K),activity coefficient (358.15 K),activity coefficient (368.15 K)
c1ccncc1 [pyridine] + COCC[N+]1(C)CCCCC1.O=S(=O)([N-]S(=O)(=O)C(F)(F)F)C(F)(F)F,0.548 ± 0.04,0.555 ± 0.04,0.562 ± 0.04,0.57 ± 0.041,0.577 ± 0.041,0.583 ± 0.041
C=Cc1ccccc1 [styrene] + COCC[N+]1(C)CCCCC1.O=S(=O)([N-]S(=O)(=O)C(F)(F)F)C(F)(F)F,1.08 ± 0.07,1.1 ± 0.07,1.13 ± 0.07,1.14 ± 0.07,1.16 ± 0.07,1.19 ± 0.08
C1CCOC1 [tetrahydrofuran] + COCC[N+]1(C)CCCCC1.O=S(=O)([N-]S(=O)(=O)C(F)(F)F)C(F)(F)F,0.76 ± 0.05,0.773 ± 0.051,0.787 ± 0.051,0.799 ± 0.052,0.809 ± 0.052,0.821 ± 0.053
c1ccsc1 [thiophene] + COCC[N+]1(C)CCCCC1.O=S(=O)([N-]S(=O)(=O)C(F)(F)F)C(F)(F)F,0.787 ± 0.051,0.798 ± 0.052,0.808 ± 0.052,0.819 ± 0.053,0.829 ± 0.053,0.839 ± 0.054
Cc1ccccc1 [toluene] + COCC[N+]1(C)CCCCC1.O=S(=O)([N-]S(=O)(=O)C(F)(F)F)C(F)(F)F,1.29 ± 0.08,1.3 ± 0.08,1.32 ± 0.09,1.33 ± 0.09,1.34 ± 0.09,1.35 ± 0.09
O [water] + COCC[N+]1(C)CCCCC1.O=S(=O)([N-]S(=O)(=O)C(F)(F)F)C(F)(F)F,3.35 ± 0.23,2.93 ± 0.2,2.62 ± 0.18,2.33 ± 0.16,2.07 ± 0.14,1.87 ± 0.13
